Laboratory results reported in patent US20100227935A1, “CLASS OF TERPENE-DERIVED COMPOUNDS HAVING AN ANTIBIOTIC ACTIVITY, COMPOSITIONS CONTAINING THE SAME AND USES THEREOF” (Centre National De La Recherche Scientifique, priority 2006, published 2010).
Values after ≈ are worked out from the molar mass of the structure shown.

Tests used:
Staphylococcus aureus H1 = experiment: MIC / antibiotic susceptibility; assay type: cell-based; further: key: R: strain resistant to antibiotic concerned; S: strain sensitive to antibiotic concerned; L strain with intermediate resistance to antibiotic concerned
Staphylococcus aureus H3 = experiment: MIC / antibiotic susceptibility; assay type: cell-based; further: key: R: strain resistant to antibiotic concerned; S: strain sensitive to antibiotic concerned; L strain with intermediate resistance to antibiotic concerned
Staphylococcus aureus H4 = experiment: MIC / antibiotic susceptibility; assay type: cell-based; further: key: R: strain resistant to antibiotic concerned; S: strain sensitive to antibiotic concerned; L strain with intermediate resistance to antibiotic concerned
Staphylococcus aureus H7 = experiment: MIC / antibiotic susceptibility; assay type: cell-based
Staphylococcus aureus H9 = experiment: MIC / antibiotic susceptibility; assay type: cell-based
[1] = tested on: Staphylococcus aureus H18; experiment: MIC / antibiotic susceptibility; assay type: cell-based; further: key: R: strain resistant to antibiotic concerned; S: strain sensitive to antibiotic concerned; L strain with intermediate resistance to antibiotic concerned
[2] = tested on: Staphylococcus aureus H16; assay type: cell-based
C. difficile [3] = settings: molecules in current use or in clinical trials (phase III); cited from earlier work
C. difficile [4] = settings: cited from earlier work

Molecule: Teicoplanin
- Susceptibility of strain to antibiotic (Staphylococcus aureus H1): S
- Susceptibility of strain to antibiotic (Staphylococcus aureus H3): S
- Susceptibility of strain to antibiotic (Staphylococcus aureus H4): S
- Susceptibility of strain to antibiotic (Staphylococcus aureus H7): S
- Susceptibility of strain to antibiotic (Staphylococcus aureus H9): S
- Susceptibility of strain to antibiotic [1]: R

Molecule: C[C@H]1c2cccc(O)c2C(O)=C2C(=O)[C@]3(O)C(O)=C(C(N)=O)C(=O)[C@@H](N(C)C)[C@@H]3[C@@H](O)[C@@H]21 [Doxycyclin]
- Susceptibility of strain to antibiotic (Staphylococcus aureus H1): S
- Susceptibility of strain to antibiotic (Staphylococcus aureus H3): S
- Susceptibility of strain to antibiotic (Staphylococcus aureus H4): S
- Susceptibility of strain to antibiotic (Staphylococcus aureus H7): S
- Susceptibility of strain to antibiotic (Staphylococcus aureus H9): S
- Susceptibility of strain to antibiotic [1]: S

Molecule: Cc1onc(-c2ccccc2)c1C(=O)N[C@@H]1C(=O)N2[C@@H]1SC(C)(C)[C@@H]2C(=O)O [Oxacillin]
- Susceptibility of strain to antibiotic (Staphylococcus aureus H1): S
- Susceptibility of strain to antibiotic (Staphylococcus aureus H3): S
- Susceptibility of strain to antibiotic (Staphylococcus aureus H4): R
- Susceptibility of strain to antibiotic (Staphylococcus aureus H7): S
- Susceptibility of strain to antibiotic (Staphylococcus aureus H9): S
- Susceptibility of strain to antibiotic [2]: R
- Susceptibility of strain to antibiotic [1]: R

Molecule: Co-trimoxazole
- Susceptibility of strain to antibiotic (Staphylococcus aureus H1): S
- Susceptibility of strain to antibiotic (Staphylococcus aureus H3): S
- Susceptibility of strain to antibiotic (Staphylococcus aureus H4): S
- Susceptibility of strain to antibiotic (Staphylococcus aureus H7): S
- Susceptibility of strain to antibiotic (Staphylococcus aureus H9): S
- Susceptibility of strain to antibiotic [2]: S
- Susceptibility of strain to antibiotic [1]: S

Molecule: Cc1nnc(SCC2=C(C(=O)O)N3C(=O)[C@@H](NC(=O)Cn4cnnn4)[C@H]3SC2)s1 [Cefazoline]
- Susceptibility of strain to antibiotic (Staphylococcus aureus H1): S
- Susceptibility of strain to antibiotic (Staphylococcus aureus H3): S
- Susceptibility of strain to antibiotic (Staphylococcus aureus H4): R
- Susceptibility of strain to antibiotic (Staphylococcus aureus H7): S
- Susceptibility of strain to antibiotic (Staphylococcus aureus H9): S
- Susceptibility of strain to antibiotic [2]: R
- Susceptibility of strain to antibiotic [1]: R

Molecule: CN[C@H](CC(C)C)C(=O)N[C@H]1C(=O)N[C@@H](CC(N)=O)C(=O)N[C@H]2C(=O)N[C@H]3C(=O)N[C@H](C(=O)N[C@H](C(=O)O)c4cc(O)cc(O)c4-c4cc3ccc4O)[C@H](O)c3ccc(c(Cl)c3)Oc3cc2cc(c3O[C@@H]2O[C@H](CO)[C@@H](O)[C@H](O)[C@H]2O[C@H]2C[C@](C)(N)[C@H](O)[C@H](C)O2)Oc2ccc(cc2Cl)[C@H]1O [Vancomycin]
- Susceptibility of strain to antibiotic (Staphylococcus aureus H1): S
- Susceptibility of strain to antibiotic (Staphylococcus aureus H3): S
- Susceptibility of strain to antibiotic (Staphylococcus aureus H4): S
- Susceptibility of strain to antibiotic (Staphylococcus aureus H7): S
- Susceptibility of strain to antibiotic (Staphylococcus aureus H9): S
- Susceptibility of strain to antibiotic [2]: S
- Susceptibility of strain to antibiotic [1]: R
- MIC on C. difficile (C. difficile [3]): ~1 µg/mL (≈ 0.69 µM)

Molecule: NC[C@H]1O[C@H](O[C@H]2[C@H](O)[C@@H](O[C@H]3O[C@H](CO)[C@@H](O)[C@H](N)[C@H]3O)[C@H](N)C[C@@H]2N)[C@H](N)C[C@@H]1O [Tobramycin]
- Susceptibility of strain to antibiotic (Staphylococcus aureus H1): S
- Susceptibility of strain to antibiotic (Staphylococcus aureus H3): S
- Susceptibility of strain to antibiotic (Staphylococcus aureus H4): R
- Susceptibility of strain to antibiotic (Staphylococcus aureus H7): S
- Susceptibility of strain to antibiotic (Staphylococcus aureus H9): S
- Susceptibility of strain to antibiotic [2]: R
- Susceptibility of strain to antibiotic [1]: R

Molecule: CO[C@H]1/C=C/O[C@@]2(C)Oc3c(C)c(O)c4c(O)c(c5c(nc6cc(C)ccn65)c4c3C2=O)NC(=O)/C(C)=C\C=C\[C@H](C)[C@H](O)[C@@H](C)[C@@H](O)[C@@H](C)[C@H](OC(C)=O)[C@@H]1C [Rifaximin]
- MIC on C. difficile (C. difficile [3]): 0.08 to 0.2 µg/mL

Molecule: CC(=O)Oc1ccccc1C(=O)Nc1ncc([N+](=O)[O-])s1 [Nitazoxanide]
- MIC on C. difficile (C. difficile [3]): 0.1 µg/mL (≈ 0.325 µM)

Molecule: CC[C@H]1OC(=O)[C@H](C)[C@@H](O[C@H]2C[C@@](C)(OC)[C@@H](O)[C@H](C)O2)[C@H](C)[C@@H](O[C@@H]2O[C@H](C)C[C@H](N(C)C)[C@H]2O)[C@](C)(O)C[C@@H](C)C(=O)[C@H](C)[C@@H](O)[C@]1(C)O [Erythromycin]
- Susceptibility of strain to antibiotic (Staphylococcus aureus H1): S
- Susceptibility of strain to antibiotic (Staphylococcus aureus H3): R
- Susceptibility of strain to antibiotic (Staphylococcus aureus H4): S
- Susceptibility of strain to antibiotic (Staphylococcus aureus H7): R
- Susceptibility of strain to antibiotic (Staphylococcus aureus H9): R
- Susceptibility of strain to antibiotic [2]: R
- Susceptibility of strain to antibiotic [1]: R

Molecule: C[C@@H]1O[C@@H]1P(=O)(O)O [Fosfomycin]
- Susceptibility of strain to antibiotic (Staphylococcus aureus H1): S
- Susceptibility of strain to antibiotic (Staphylococcus aureus H3): S
- Susceptibility of strain to antibiotic (Staphylococcus aureus H4): S
- Susceptibility of strain to antibiotic (Staphylococcus aureus H7): S
- Susceptibility of strain to antibiotic (Staphylococcus aureus H9): S
- Susceptibility of strain to antibiotic [2]: R
- Susceptibility of strain to antibiotic [1]: R

Molecule: Cc1ncc([N+](=O)[O-])n1CCO [Metronidazole]
- MIC on C. difficile (C. difficile [3]): 1 µg/mL (≈ 5.84 µM)
- Patients for whom the drug is inactive (C. difficile [4]; first intention treatment of C. difficile infection): 25%
- Relapses (C. difficile [4]; treatment of C. difficile infection): 25 % of cases

Molecule: CCc1c(Cl)c(O)c(Cl)c(O)c1C(=O)O[C@H]1[C@H](O)[C@H](OC)[C@H](OC/C2=C\C=C\C[C@H](O)/C(C)=C/[C@H](CC)[C@@H](O[C@@H]3OC(C)(C)[C@@H](OC(=O)C(C)C)[C@H](O)[C@@H]3O)/C(C)=C/C(C)=C/C[C@@H]([C@@H](C)O)OC2=O)O[C@@H]1C [Lipiarmycin]
- MIC on C. difficile (C. difficile [3]): 0.06 to 2 µg/mL

Molecule: CC1COc2c(N3CCN(C)CC3)c(F)cc3c(=O)c(C(=O)O)cn1c23 (stereo not drawn) [Ofloxacin]
- Susceptibility of strain to antibiotic (Staphylococcus aureus H1): S
- Susceptibility of strain to antibiotic (Staphylococcus aureus H3): R
- Susceptibility of strain to antibiotic (Staphylococcus aureus H4): R
- Susceptibility of strain to antibiotic (Staphylococcus aureus H7): R
- Susceptibility of strain to antibiotic (Staphylococcus aureus H9): S
- Susceptibility of strain to antibiotic [2]: R
- Susceptibility of strain to antibiotic [1]: R

Molecule: Gentamicin
- Susceptibility of strain to antibiotic (Staphylococcus aureus H1): S
- Susceptibility of strain to antibiotic (Staphylococcus aureus H3): S
- Susceptibility of strain to antibiotic (Staphylococcus aureus H4): S
- Susceptibility of strain to antibiotic (Staphylococcus aureus H7): S
- Susceptibility of strain to antibiotic (Staphylococcus aureus H9): S
- Susceptibility of strain to antibiotic [2]: R
- Susceptibility of strain to antibiotic [1]: S

Molecule: CC1(C)S[C@@H]2[C@H](NC(=O)[C@H](N)c3ccc(O)cc3)C(=O)N2[C@H]1C(=O)O [Amoxicillin]
- Susceptibility of strain to antibiotic (Staphylococcus aureus H1): R
- Susceptibility of strain to antibiotic (Staphylococcus aureus H3): R
- Susceptibility of strain to antibiotic (Staphylococcus aureus H4): R
- Susceptibility of strain to antibiotic (Staphylococcus aureus H7): R
- Susceptibility of strain to antibiotic (Staphylococcus aureus H9): R
- Susceptibility of strain to antibiotic [2]: R
- Susceptibility of strain to antibiotic [1]: R

Molecule: Pristinamycin
- Susceptibility of strain to antibiotic (Staphylococcus aureus H1): S
- Susceptibility of strain to antibiotic (Staphylococcus aureus H3): S
- Susceptibility of strain to antibiotic (Staphylococcus aureus H4): S
- Susceptibility of strain to antibiotic (Staphylococcus aureus H7): S
- Susceptibility of strain to antibiotic (Staphylococcus aureus H9): S
- Susceptibility of strain to antibiotic [1]: S

Molecule: CCn1cc(C(=O)O)c(=O)c2cc(F)c(N3CCNCC3)cc21 [Norfloxacin]
- Susceptibility of strain to antibiotic (Staphylococcus aureus H1): S
- Susceptibility of strain to antibiotic (Staphylococcus aureus H3): R
- Susceptibility of strain to antibiotic (Staphylococcus aureus H4): R
- Susceptibility of strain to antibiotic (Staphylococcus aureus H7): R
- Susceptibility of strain to antibiotic (Staphylococcus aureus H9): S
- Susceptibility of strain to antibiotic [2]: R
- Susceptibility of strain to antibiotic [1]: R

Molecule: NCC[C@H](O)C(=O)N[C@@H]1C[C@H](N)[C@@H](O[C@H]2O[C@H](CN)[C@@H](O)[C@H](O)[C@H]2O)[C@H](O)[C@H]1O[C@H]1O[C@H](CO)[C@@H](O)[C@H](N)[C@H]1O [Amikacin]
- Susceptibility of strain to antibiotic (Staphylococcus aureus H1): S
- Susceptibility of strain to antibiotic (Staphylococcus aureus H3): S
- Susceptibility of strain to antibiotic (Staphylococcus aureus H4): R
- Susceptibility of strain to antibiotic (Staphylococcus aureus H7): S
- Susceptibility of strain to antibiotic (Staphylococcus aureus H9): S
- Susceptibility of strain to antibiotic [2]: R
- Susceptibility of strain to antibiotic [1]: R

Molecule: CN(C)[C@@H]1C(O)=C(C(N)=O)C(=O)[C@@]2(O)C(O)=C3C(=O)c4c(O)cccc4[C@@](C)(O)[C@H]3C[C@@H]12 [Tetracycline]
- Susceptibility of strain to antibiotic (Staphylococcus aureus H1): S
- Susceptibility of strain to antibiotic (Staphylococcus aureus H3): S
- Susceptibility of strain to antibiotic (Staphylococcus aureus H4): S
- Susceptibility of strain to antibiotic [2]: R

Molecule: CC1(C)S[C@@H]2[C@H](NC(=O)Cc3ccccc3)C(=O)N2[C@H]1C(=O)O [Penicillin G]
- Susceptibility of strain to antibiotic (Staphylococcus aureus H1): R
- Susceptibility of strain to antibiotic (Staphylococcus aureus H3): R
- Susceptibility of strain to antibiotic (Staphylococcus aureus H4): R
- Susceptibility of strain to antibiotic (Staphylococcus aureus H7): R
- Susceptibility of strain to antibiotic (Staphylococcus aureus H9): R
- Susceptibility of strain to antibiotic [2]: R
- Susceptibility of strain to antibiotic [1]: R

Molecule: CC(=O)O[C@H]1C[C@@]2(C)[C@@H](C[C@@H](O)[C@H]3[C@@]4(C)CC[C@@H](O)[C@@H](C)[C@@H]4CC[C@@]32C)/C1=C(\CCC=C(C)C)C(=O)O [Fusidic acid]
- Susceptibility of strain to antibiotic (Staphylococcus aureus H1): S
- Susceptibility of strain to antibiotic (Staphylococcus aureus H3): S
- Susceptibility of strain to antibiotic (Staphylococcus aureus H4): S
- Susceptibility of strain to antibiotic (Staphylococcus aureus H7): S
- Susceptibility of strain to antibiotic (Staphylococcus aureus H9): R
- Susceptibility of strain to antibiotic [2]: S
- Susceptibility of strain to antibiotic [1]: S

Molecule: CO[C@H]1/C=C/O[C@@]2(C)Oc3c(C)c(O)c4c(O)c(c(/C=N/N5CCN(C)CC5)c(O)c4c3C2=O)NC(=O)/C(C)=C\C=C\[C@H](C)[C@H](O)[C@@H](C)[C@@H](O)[C@@H](C)[C@H](OC(C)=O)[C@@H]1C [Rifampicin]
- Susceptibility of strain to antibiotic (Staphylococcus aureus H1): S
- Susceptibility of strain to antibiotic (Staphylococcus aureus H3): S
- Susceptibility of strain to antibiotic (Staphylococcus aureus H4): S
- Susceptibility of strain to antibiotic (Staphylococcus aureus H7): S
- Susceptibility of strain to antibiotic (Staphylococcus aureus H9): S
- Susceptibility of strain to antibiotic [2]: R
- Susceptibility of strain to antibiotic [1]: S

Molecule: CCN1CCN(C(=O)N[C@@H](C(=O)N[C@@H]2C(=O)N3[C@@H]2SC(C)(C)[C@@H]3C(=O)O)c2ccccc2)C(=O)C1=O [Piperacillin]
- Susceptibility of strain to antibiotic (Staphylococcus aureus H1): R
- Susceptibility of strain to antibiotic (Staphylococcus aureus H3): R
- Susceptibility of strain to antibiotic (Staphylococcus aureus H4): R
- Susceptibility of strain to antibiotic (Staphylococcus aureus H7): R
- Susceptibility of strain to antibiotic (Staphylococcus aureus H9): R
- Susceptibility of strain to antibiotic [2]: R
- Susceptibility of strain to antibiotic [1]: R
